Reference: ChEMBL document CHEMBL1201862, “PubChem BioAssay data set” (2004)
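Assay format: 96-well plates, 48-hour exposure. GI50 marks 50% less growth.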 Active and inactive are the calls of the source. No stated cut-off is given here; in the data, active = GI50 up to about 1.1 µM and inactive = higher.

Key:
Assay in all cases: growth of human tumour cells (NCI), 48 h
KM-20L2 = tested on: KM-20L2
HL-60 = tested on: HL-60
K562 = tested on: K562
HT-29 = tested on: HT-29
SF-539 = tested on: SF-539
SNB-19 = tested on: SNB-19
CAKI-1 = tested on: CAKI-1
A549 = tested on: A549
SF-268 = tested on: SF-268
SK-MEL-2 = tested on: SK-MEL-2
NCI/ADR-RES = tested on: NCI/ADR-RES
NCI-H23 = tested on: NCI-H23
HOP-92 = tested on: HOP-92
MCF7 = tested on: MCF7
SF-295 = tested on: SF-295
RPMI-8226 = tested on: RPMI-8226
OVCAR-3 = tested on: OVCAR-3
IGROV-1 = tested on: IGROV-1
MOLT-4 = tested on: MOLT-4
HOP-62 = tested on: HOP-62
OVCAR-8 = tested on: OVCAR-8
UACC-62 = tested on: UACC-62
SN12C = tested on: SN12C
OVCAR-5 = tested on: OVCAR-5
M19-MEL = tested on: M19-MEL
SW-620 = tested on: SW-620
A498 = tested on: A498
RXF 393 = tested on: RXF 393
HOP-18 = tested on: HOP-18
CCRF-CEM = tested on: CCRF-CEM
SK-MEL-28 = tested on: SK-MEL-28
DLD-1 = tested on: DLD-1
DMS-114 = tested on: DMS-114
LOX IMVI = tested on: LOX IMVI
UO-31 = tested on: UO-31
NCI-H226 = tested on: NCI-H226
SK-MEL-5 = tested on: SK-MEL-5
COLO 205 = tested on: COLO 205
SNB-75 = tested on: SNB-75
OVCAR-4 = tested on: OVCAR-4
SNB-78 = tested on: SNB-78
NCI-H522 = tested on: NCI-H522
NCI-H460 = tested on: NCI-H460
SK-OV-3 = tested on: SK-OV-3
HCC 2998 = tested on: HCC 2998
UACC-257 = tested on: UACC-257
DMS-273 = tested on: DMS-273
HCT-15 = tested on: HCT-15
KM12 = tested on: KM12
EKVX = tested on: EKVX
U-251 = tested on: U-251
Malme-3M = tested on: Malme-3M
HCT-116 = tested on: HCT-116

S=c1sc2c(s1)SC(c1ccccc1)CS2 (stereo not drawn)
GI50 (KM-20L2): > 100 µM (inactive) | GI50 (HL-60): > 51.3 µM (inactive) | GI50 (K562): > 100 µM (inactive) | GI50 (HT-29): > 100 µM (inactive) | GI50 (SF-539): > 100 µM (inactive) | GI50 (SNB-19): > 100 µM (inactive) | GI50 (CAKI-1): 1 µM (active) | GI50 (A549): > 100 µM (inactive) | GI50 (SF-268): > 100 µM (inactive) | GI50 (SK-MEL-2): > 100 µM (inactive) | GI50 (NCI/ADR-RES): > 52 µM (inactive) | GI50 (NCI-H23): > 100 µM (inactive) | GI50 (HOP-92): > 64.4 µM (inactive) | GI50 (MCF7): > 100 µM (inactive) | GI50 (SF-295): 25.8 µM (inactive) | GI50 (RPMI-8226): > 100 µM (inactive) | GI50 (OVCAR-3): > 66.2 µM (inactive) | GI50 (IGROV-1): > 100 µM (inactive) | GI50 (MOLT-4): > 100 µM (inactive) | GI50 (HOP-62): > 90.8 µM (inactive) | GI50 (OVCAR-8): > 100 µM (inactive) | GI50 (UACC-62): > 100 µM (inactive) | GI50 (SN12C): > 100 µM (inactive) | GI50 (OVCAR-5): > 100 µM (inactive) | GI50 (M19-MEL): > 100 µM (inactive) | GI50 (SW-620): > 100 µM (inactive) | GI50 (A498): > 100 µM (inactive) | GI50 (RXF 393): 25.1 µM (inactive) | GI50 (HOP-18): > 100 µM (inactive) | GI50 (CCRF-CEM): > 100 µM (inactive) | GI50 (SK-MEL-28): > 100 µM (inactive) | GI50 (DLD-1): > 100 µM (inactive) | GI50 (DMS-114): > 47.9 µM (inactive) | GI50 (LOX IMVI): > 86.3 µM (inactive) | GI50 (UO-31): > 100 µM (inactive) | GI50 (NCI-H226): > 100 µM (inactive) | GI50 (SK-MEL-5): > 100 µM (inactive) | GI50 (COLO 205): > 100 µM (inactive) | GI50 (SNB-75): > 45 µM (inactive) | GI50 (OVCAR-4): 20.4 µM (inactive) | GI50 (SNB-78): > 100 µM (inactive) | GI50 (NCI-H522): > 100 µM (inactive) | GI50 (NCI-H460): > 100 µM (inactive) | GI50 (SK-OV-3): > 100 µM (inactive) | GI50 (HCC 2998): > 85.1 µM (inactive) | GI50 (UACC-257): > 21.7 µM (inactive) | GI50 (DMS-273): > 100 µM (inactive) | GI50 (HCT-15): > 100 µM | GI50 (KM12): > 100 µM (inactive) | GI50 (EKVX): > 100 µM (inactive) | GI50 (U-251): > 100 µM (inactive) | GI50 (Malme-3M): > 100 µM (inactive) | GI50 (HCT-116): > 100 µM (inactive)
